From patent publication US5693617A, “Inhibitors of the 26s proteolytic complex and the 20s proteasome contained therein” (ProScript, Inc., priority 1995, dated 1997)
“Also recorded” adds a separate entry of the source. Non-standard residues stand in square brackets, D forms with d. Residues, ends and D or L forms follow the SMILES beside them. Nle = CCCC[C@H](N)C(=O)O

Experiments:
rat diaphragm muscle [1] = experiment: Protein degradation in incubated rat diaphragm
Method: Rat diaphragm muscle was cut into quarters and incubated in medium containing a mixture of amino acids, insulin, inhibitors of lysosomal and calcium dependent proteolysis, and MG 101 at the concentrations shown in FIG. 2. After 1 hour, ^3 H-phenylalanine was added and the incubation continued for 2 hours. Under these conditions, the ATP-dependent ubiquitin pathway is largely responsible for muscle protein degradation. After incubation, the tissue was homogenized and free tyrosine of the homogenate and medium was assayed separately. ^3 -phenylalanine incorporation into protein was also measured. Values are the means +SE of data from 7 animals. Protein synthesis was calculated from the incorporation of ^3 H-phenylalanine, and net protein breakdown was calculated from the release of tyrosine into the incubation medium. The total rate of protein breakdown is calculated from the equation:
Total protein breakdown=Net protein breakdown+Protein synthesis

[2] = test system: mouse B lymphoblastoid cell line (LB27.4); experiment: MHC-I antigen presentation, intact cells (OVA loaded by hypotonic lysis of pinosomes); format: cell-based; conditions: 50 μM MG 101 in media; FIG. 6
Method: (§1) Antigen-presenting cells (APCs)--mouse B lymphoblastoid cell line (LB27.4)--were washed free of serum and loaded with an ovalbumin peptide (residues 257-263), which corresponds to the sequence these cells naturally generate and present. The APCs were incubated 1 hr at 37° C., electroporated with antigen, incubated 10 min on ice and washed. The antigen loaded cells were incubated 2 hrs at 37° C., fixed with paraformaldehyde, and washed. MG 101 at the concentrations indicated in FIG. 5 was present in all steps prior to fixation. APCs were assayed for antigen presentation as described in Rock et al., J. Immunol. 145:804-811 (1990) and Carbone et al., J. Exp Med. 171:377-387 (1990). […] In the left panel, APCs were treated with (open circles) or without (closed circles) MG 101 and electroporated with ovalbumin. In the right panel, APCs were treated with (open circles) or without (closed circles) MG 101 and electroporated with ovalbumin peptide. Conditions were the same as in Example 7, except that (1) in one group of cells (referred to as MG 101 in media) MG 101 (50 μM) was omitted from the antigen load while in a parallel group (referred to as MG 101 in Ag load) MG 101 (50 μM) was included in the antigen load; and (2) OVA was introduced into the cytoplasm by hypotonic lysis of pinosomes (3) instead of electroporation.

[3] = molecular target: chymotrypsin-like activity of the proteasome; conditions: Vinitsky et al. 1992; slow binding inhibitors; cited from earlier work
rat diaphragm muscle [4] = experiment: T3 induced protein degradation in incubated rat diaphragm; conditions: 40 μM MG 101; FIG. 3
Method: T3 was administered to hypophysectomized rats for 7 days. […] After incubation, the tissue was homogenized, and ^3 -phenylalanine incorporation into protein and free tyrosine of the medium was measured.

26S proteasome = molecular target: T1, 26S proteasome (Oryctolagus cuniculus, UniProt G1T4Q9); experiment: Inhibition of the 26S proteasome (kinetic experiments); format: biochemical, Rabbit; conditions: summary of enzyme inhibition; read-out: Ki, 26S proteasome complex activity
T1 sequence (G1T4Q9 60-263): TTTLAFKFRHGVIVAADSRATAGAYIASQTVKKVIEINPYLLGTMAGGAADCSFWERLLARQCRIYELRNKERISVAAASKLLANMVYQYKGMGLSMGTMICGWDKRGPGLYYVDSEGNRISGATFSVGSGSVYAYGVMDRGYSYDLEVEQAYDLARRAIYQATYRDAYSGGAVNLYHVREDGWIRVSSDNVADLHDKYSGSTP
T1 sequence (G1SU71 1-241 partner): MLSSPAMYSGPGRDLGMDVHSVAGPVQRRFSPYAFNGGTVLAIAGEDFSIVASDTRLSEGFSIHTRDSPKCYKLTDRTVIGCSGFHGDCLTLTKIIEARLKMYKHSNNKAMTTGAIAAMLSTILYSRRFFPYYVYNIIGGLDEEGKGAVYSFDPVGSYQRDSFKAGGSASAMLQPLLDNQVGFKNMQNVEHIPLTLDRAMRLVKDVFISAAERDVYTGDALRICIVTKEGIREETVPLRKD
Description: (§2) Tables I-III summarize results from kinetic experiments that measured the inhibition of the 20S and 26S proteasomes, as well as cathepsin B and calpain, enzymes that may also be involved in muscle protein turnover. In these tables, Ki values are reported, which are dissociation constants for the equilibrium that is established when enzyme and inhibitor interact to form the enzyme:inhibitor complex.
(§3) The substances and assay conditions are briefly summarized in the footnotes to Table I. MG 101 and MG 102, also known as Calpain Inhibitor I and II, were purchased from Calbiochem as catalogue products.
(^b) Rabbit muscle. Substrate: […]. [Mg:ATP] = 2 mM.

[5] = test system: mouse B lymphoblastoid cell line (LB27.4); experiment: MHC-I antigen presentation, electroporated antigen-presenting cells; format: cell-based
Method: as §1, with “peptide.” for “peptide. Conditions were the same as in Example 7, except that (1) in one group of cells (referred to as MG 101 in media) MG 101 (50 μM) was omitted from the antigen load while in a parallel group (referred to as MG 101 in Ag load) MG 101 (50 μM) was included in the antigen load; and (2) OVA was introduced into the cytoplasm by hypotonic lysis of pinosomes (3) instead of electroporation.”

20S proteasome = molecular target: T2, 20S proteasome (Oryctolagus cuniculus, UniProt G1T4Q9); experiment: Inhibition of the 20S proteasome peptidase activity (kinetic experiments); format: biochemical, Rabbit
T2 sequence (G1T4Q9 60-263): T1 sequence (G1T4Q9 60-263)
T2 sequence (G1SU71 1-241 partner): T1 sequence (G1SU71 1-241 partner)
Description: as §2, §3
(^a) Rabbit muscle. SDSactivated. Substrate: SucLLVYAMC.

rat soleus muscle = experiment: Denervation-induced protein degradation in incubated rat soleus muscle; conditions: 100 μM MG 101; FIG. 4
Method: One leg of each of seven rats was denervated by section of the sciatic nerve 3 days prior to sacrifice. […] After incubation, the tissue was homogenized, and ^3 -phenylalanine incorporation into protein and free tyrosine of the medium was measured.

Compound: CCCC[C@@H](C=O)NC(=O)[C@H](CC(C)C)NC(=O)[C@H](CC(C)C)NC(C)=O [MG 101, Ac-Leu-Leu-Nle-H] (Ac-Leu-Leu-[Nle]-aldehyde)
- Amino acid pools in incubated muscle (rat diaphragm muscle [1]): nor does it significantly alter amino acid pools
- Protein synthesis in incubated muscle (rat diaphragm muscle [1]; 3H-phenylalanine incorporation): does not inhibit protein synthesis
- Protein degradation in incubated rat diaphragm (rat diaphragm muscle [1]; lysosomal and calcium dependent proteolysis inhibited, FIG. 2): inhibits the breakdown of muscle protein; also recorded: inhibition of protein degradation
- Antigen presentation from ovalbumin in intact cells [2]: can enter into living cells and inhibit antigen processing; also recorded: inhibits presentation of antigen from ovalbumin
- Ki [3]: 5.7 µM
- Protein degradation induced by T3 in incubated rat diaphragm (rat diaphragm muscle [4]): inhibits the accelerated proteolysis in muscle; also recorded: inhibition of protein degradation
- Ki (26S proteasome): 2.9 µM
- MHC-I presentation of ovalbumin peptide ([5]; APCs electroporated with ovalbumin peptide, FIG. 5 right panel): fails to block the presentation of the specific peptide; also recorded: does not inhibit the presentation of electroporated peptide
- MHC-I presentation of ovalbumin ([5]; APCs electroporated with ovalbumin, FIG. 5 left panel): inhibits the presentation of ovalbumin with class I MHC molecules; also recorded: inhibits presentation of antigen from ovalbumin
- Mode of inhibition of peptidase activity of muscle 20S proteasome (20S proteasome; FIG. 1): competitive inhibitor
- Ki (20S proteasome; both latent and active forms of 20S proteasome, read-out: Ki, peptidase activities of 20S proteasome): 0.14 to 7 µM
- Protein degradation induced by denervation in incubated rat soleus muscle (rat soleus muscle): inhibits the accelerated proteolysis in muscle; also recorded: inhibition of protein degradation
